Results on 73 compounds are retold here after the OPERA property sets (Mansouri et al. 2018).

Conditions in one data set: not given
For `FC(F)(F)C(F)(Cl)Cl`, the boiling point worked out at 4 °C, the log10 vapour pressure (mmHg) turned out to be 3.21 and the melting point was -56.6 °C.

Take `Cl[C@H]1CC[C@@H](Cl)CC1`: the melting point was 18 °C. For the compound `CCOc1ccc(Cl)cc1`, the boiling point was found to be 213 °C and the melting point is 21 °C. Taken in the same sequence, the figures for `COc1ccccc1F` were 154 °C and -39 °C. On to `COC(=O)C[C@@H](C)C(=O)OC`, for which the boiling point is 196 °C. `CCOC(=O)[C@H](O)[C@@H](O)C(=O)OCC` displayed a boiling point of 280 °C and a melting point of 17 °C. `CN(C)c1ccncc1` returned a melting point of 112 °C.

With `CCC(C)(C)c1ccccc1`, the boiling point was determined as 192 °C and the ready biodegradability entry is “not readily biodegradable”. Compound `CC(/C=C/C=C(\C)C(=O)O)=C\C=C\C=C(C)\C=C\C=C(/C)C(=O)O` displayed a melting point of 286 °C. The compound `CC(=O)Nc1ccc(/N=N/c2cc(C)ccc2O)cc1` displayed a log10 vapour pressure (mmHg) of -10.3 and a melting point of 195 °C. With `CCOC(=O)NP(=O)(N1CC1)N1CC1`, the melting point was 89 °C.

`CCC(C)(c1ccc(O)cc1)c1ccc(O)cc1` yielded a melting point of 120 °C. Consider `CCn1cc(C(=O)O)c(=O)c2cc(F)c(N3CCNCC3)cc21`, for which the melting point was found to be 228 °C. Take `CCCC(C)CO` (centres undefined): the boiling point came out at 149 °C and the log10 vapour pressure (mmHg) is 0.283. `O=C(OCC(=O)N1CCOCC1)c1ccccc1`: the melting point amounted to 104 °C. Still for that read-out and setting: the result for `N[C@@H](Cc1cc(I)c(O)c(I)c1)C(=O)O` reads 213 °C. Turning to `CCC1(c2ccccc2)C(=O)NC(=O)NC1=O`, the melting point amounted to 174 °C and the ready biodegradability result was “not readily biodegradable”. As for `Clc1cc(-c2c(Cl)ccc(Cl)c2Cl)c(Cl)c(Cl)c1Cl`, the log10 Henry constant (atm·m³/mol) was -4.85. Turning to `O=CN(O)CC(=O)O`, the melting point was 120 °C.

As for `FC(F)(F)c1cccc(Br)c1`, the boiling point was found to be 152 °C and the melting point amounted to 1 °C. With `CCCCOC(=O)CCCC`, the boiling point is 186 °C and the melting point was -92.8 °C. As for `Cc1cc(Cl)ccc1OCC(=O)O`, the boiling point amounted to 287 °C, the log10 Koc (L/kg) is 1.73, the log10 vapour pressure (mmHg) was -5.23 and the melting point is 120 °C. Further, the ready biodegradability entry is “not readily biodegradable”.

In turn, `O=C1c2ccc(O)c(O)c2C(=O)c2ccc(O)c(O)c21` registered a melting point of 340 °C. Still for that read-out and setting: the result for `CCCCCCC(O)C(=O)O` (centres undefined) reads 70 °C; that for `C=CCn1c(N)cc(=O)n(CC)c1=O`, 143 °C.

Compound `CCO[Si](C)(C)OCC` returned a boiling point of 114 °C, a log10 vapour pressure (mmHg) of 1.3 and a melting point of -87 °C. Regarding `Cc1cccc(NC(=O)c2ccccc2C(=O)O)c1`, the melting point is 150 °C. `CCCOC(=O)Nc1ccccc1`: the log10 Koc (L/kg) is 2.06. Compound `COCC1CCCO1` (centres undefined) gave a boiling point of 140 °C. In turn, `Clc1cccc(Oc2ccc(Cl)c(Cl)c2)c1` had a log10 vapour pressure (mmHg) of -3.91.

The compound `Fc1ccc(F)cc1` had a boiling point of 89 °C, a log10 vapour pressure (mmHg) of 1.81 and a melting point of -13 °C.

Turning to `C=C(C)C(C)CCC` (centres undefined), the boiling point came out at 110 °C. Take `FC(F)I`: the boiling point was 21.6 °C and the melting point was -122 °C.

`O=C(O)c1ccoc1` came in with a melting point of 122 °C. For `CCC(=O)OCCc1ccccc1`, the boiling point was 238 °C. As to `Clc1ccc2oc3c(Cl)c(Cl)c(Cl)c(Cl)c3c2c1`, the log10 vapour pressure (mmHg) was -8.44 and the melting point came out at 178 °C. Compound `O=C(O)c1cccc2cccc(Cl)c12` displayed a melting point of 172 °C. For the compound `CC(O)(CCO)CCO`, the ready biodegradability entry was “not readily biodegradable”. `CCCC(C)(C)C(C)(C)C`: the boiling point is 160 °C, the log10 vapour pressure (mmHg) came to 0.589 and the melting point was -54 °C. In turn, `O=[N+]([O-])c1ccc(C2CCCCC2)cc1` showed a melting point of 58.5 °C.

Compound `CCSc1ccccc1` came in with a boiling point of 205 °C. Same read-out and setting: with `CCCNC` the figure was 62 °C. Turning to `c1ccc2oc(-c3ccc(-c4nc5ccccc5o4)s3)nc2c1`, the melting point turned out to be 219 °C. Take `Clc1ccc2ccc(Cl)cc2c1`: the log10 Koa amounted to 6.7. In turn, `Brc1cc2c(cc1Br)Oc1ccccc1O2` showed a log10 vapour pressure (mmHg) of -5.92 and a melting point of 158 °C.

Compound `c1ccc(Cc2cccc3ccccc23)cc1` yielded a boiling point of 350 °C and a melting point of 59.5 °C.

For `O=C(NC(=O)c1c(F)cccc1F)Nc1ccc(OC(F)(F)C(F)OC(F)(F)F)c(Cl)c1` (centres undefined), the melting point amounted to 178 °C. For `CC(C)CCCCCCCCCCCCCCC(=O)O`, the ready biodegradability entry is given as “readily biodegradable”.

`COc1ccc2c(c1OC)C(=O)O[C@@H]2[C@H]1c2c(cc3c(c2OC)OCO3)CCN1C`: the melting point is 176 °C. Turning to `CCC(C)c1cc([N+](=O)[O-])cc([N+](=O)[O-])c1O` (centres undefined), the boiling point is 332 °C, the log10 Koc (L/kg) came to 2.7, the melting point was 40 °C and the ready biodegradability entry is listed as “not readily biodegradable”. Consider `CCCCCCCCCCCCCCCC(=O)OC(=O)CCCCCCCCCCCCCCC`, for which the melting point was 64 °C.

`CCC(Cl)C(C)Cl` (centres undefined) returned a boiling point of 139 °C and a melting point of -77.3 °C. Consider `Cc1ccc(S(=O)(=O)Oc2c(C(=O)c3ccc(Cl)cc3Cl)c(C)nn2C)cc1`, for which the melting point was found to be 118 °C.

Consider `CCc1ccccc1`, for which the boiling point came to 136 °C, the log10 Henry constant (atm·m³/mol) is -2.1, the log10 Koa was found to be 3.74 and the log10 Koc (L/kg) worked out at 2.23. This compound also yielded a log10 biodegradation half-life (days) of 0.903, a log10 vapour pressure (mmHg) of 0.982 and a melting point of -94.9 °C.

The compound `COc1ccc(N)cc1Cl` showed a log10 Koc (L/kg) of 1.93 and a melting point of 52.5 °C. In turn, `CCCCCCCCCCCCCCCCCCCCCCCCCCCCCC(=O)O` registered a melting point of 93.6 °C. In turn, `Cc1cc(C)nc(C)c1` returned a boiling point of 171 °C, a log10 vapour pressure (mmHg) of 0.298 and a melting point of -46 °C.

In turn, `O=[N+]([O-])Cc1ccccc1` registered a boiling point of 226 °C.

In the case of `CCCCCC1C(=O)CCC1CC(=O)OC` (centres undefined), the melting point was -10 °C and the ready biodegradability result is “readily biodegradable”. In turn, `CCCCNC` showed a boiling point of 91 °C and a melting point of -75 °C. Consider `CCCN(C(C)=O)c1ccccc1`, for which the boiling point was 268 °C and the melting point amounted to 49 °C. Regarding `Nc1ccc(C(F)(F)F)cc1`, the melting point came to 38 °C. Turning to `CNC1=Nc2ccc(Cl)cc2C(c2ccccc2)=[N+]([O-])C1`, the melting point is 236 °C. Consider `CCOC(=O)C(F)(F)C(F)(F)C(F)(F)F`, for which the boiling point came out at 95 °C. Consider `Cc1ccc(C(C)C)c(O)c1C(=O)O`, for which the melting point came out at 127 °C.

The compound `CC(C)CCCCCCO` returned a boiling point of 206 °C and a melting point of 64.5 °C. As for `O=C(Nc1ccccc1)c1ccccc1I`, the log10 Koc (L/kg) came to 2.82 and the melting point came to 137 °C. `CN=C(O)/C(=N/OC)c1ccccc1Oc1ccccc1` had a log10 vapour pressure (mmHg) of -6.87 and a melting point of 88 °C.

In turn, `O=C(Cl)C(c1ccccc1)c1ccccc1` yielded a melting point of 56.5 °C. In the case of `ClCc1cccc(Cl)c1`, the boiling point stood at 216 °C.

For `C=C(C)C1CC=C(CO)CC1` (centres undefined), the boiling point was determined as 244 °C.

The same data set, now with this note: fish.
`Clc1cc(-c2c(Cl)ccc(Cl)c2Cl)c(Cl)c(Cl)c1Cl` returned a log10 biotransformation half-life (days) of 2.47. For `CCC(C)c1cc([N+](=O)[O-])cc([N+](=O)[O-])c1O` (centres undefined), the log10 BCF stood at 1.79. In turn, `C=CCCC(CC)CCCC` (centres undefined) showed a log10 biotransformation half-life (days) of 0.93. For the compound `C=CCOP(=O)(OCC=C)OCC=C`, the log10 BCF stood at 0.08.

One may read the boiling point as the temperature of boiling at a given pressure. Broadly, the melting point is the temperature, or range, at which the solid turns liquid.
